Test results published in patent EP2527332A1, “4-Aryl-N-phenyl-1,3,5-triazin-2-amines containing a sulfoximine group as CDK9 inhibitors” (Bayer Intellectual Property GmbH, priority 2011, dated 2012).
pIC50: −log10 of the molar value. Like-named read-outs stand apart in the source and are kept apart here.

What was measured:
HeLa cell = experiment: Proliferation assay (crystal violet), HeLa; format: cell-based, human; settings: 4 days incubation, read-out: Inhibition of HeLa cell proliferation IC50
Description: (§1) After 24 hours, the cells of one plate (zero-point plate) were stained with crystal violet (see below), while the medium of the other plates was replaced by fresh culture medium (200 µL), to which the test substances were added in various concentrations (0 µM, as well as in the range of 0.001-10 µM; the final concentration of the solvent dimethyl sulfoxide was 0.5%). The cells were incubated for 4 days in the presence of test substances. Cell proliferation was determined by staining the cells with crystal violet: the cells were fixed by adding 20 µL/measuring point of an 11% glutaric aldehyde solution for 15 minutes at room temperature. After three washing cycles of the fixed cells with water, the plates were dried at room temperature. The cells were stained by adding 100 µL/measuring point of a 0.1% crystal violet solution (pH 3.0). After three washing cycles of the stained cells with water, the plates were dried at room temperature. The dye was dissolved by adding 100 µL/measuring point of a 10% acetic acid solution. […] The change of cell number, in percent, was calculated by normalization of the measured values to the absorbance values of the zero-point plate (=0%) and the absorbance of the untreated (0 µM) cells (=100%). The IC50 values were determined by means of a 4 parameter fit using the company's own software.

DU145 cell = experiment: Proliferation assay (crystal violet), DU145; format: cell-based, human; settings: DU145, 4 days incubation, read-out: Inhibition of DU145 cell proliferation IC50
Description: as §1

HeLa/MaTu/ADR cell = experiment: Proliferation assay (crystal violet), HeLa/MaTu/ADR; format: cell-based, human; settings: HeLa/MaTu/ADR (multidrug-resistant), 4 days incubation, read-out: Inhibition of HeLa/MaTu/ADR cell proliferation IC50
Description: as §1

B 16F 10 cell = experiment: Proliferation assay (crystal violet), B16F10; format: cell-based, mouse; settings: B16F10, 4 days incubation, read-out: Inhibition of B 16F 10 cell proliferation IC50
Description: as §1

CACO-2 cell = experiment: Proliferation assay (crystal violet), CACO-2; format: cell-based; settings: Homo sapiens, 96 h; CACO-2, 4 days incubation; read-out: Inhibition of CACO-2 cell proliferation IC50
Description: as §1

H460 cell = experiment: Proliferation assay (crystal violet), H460; format: cell-based; settings: Homo sapiens, NCI-H460, 96 h; H460, 4 days incubation; read-out: Inhibition of H460 cell proliferation (activity range) IC50
Description: as §1

[1] = Equilibrium shake flask solubility assay; format: physicochemical; settings: phosphate buffer pH 6.5, 24 hrs, room temperature; 1440 min
Description: 4. Equilibrium Shake Flask Solubility Assay:
The thermodynamic solubility of compounds in water was determined by an equilibrium shake flask method (see for example: E.H. Kerns, L. Di: Drug-like Properties: Concepts, Structure Design and Methods, 276-286, Burlington, MA, Academic Press, 2008). A saturated solution of the drug was prepared and the solution was mixed for 24 h to ensure that equilibrium was reached. The solution was centrifuged to remove the insoluble fraction and the concentration of the compound in solution was determined using a standard calibration curve.
To prepare the sample, 2 mg solid compound was weighed in a 4 mL glass vial. 1 mL phosphate buffer pH 6.5 was added. The suspension was stirred for 24 hrs at room temperature. The solution was centrifuged afterwards. To prepare the sample for the standard calibration, 2 mg solid sample was dissolved in 30 mL acetonitrile. After sonification the solution was diluted with water to 50 mL.. Sample and standards were quantified by HPLC with UV-detection. For each sample two injection volumes (5 and 50 µl) in triplicates were made. Three injection volumes (5 µl, 10 µl and 20 µl) were made for the standard.
The areas of sample- and standard injections as well as the calculation of the solubility value (in mg/l) were determined by using HPLC software (Waters Empower 2 FR).

Row | Compound | pIC50 (HeLa cell; Homo sapiens, 96 h) | pIC50 (DU145 cell; Homo sapiens, DU-145, 96 h) | pIC50 (B 16F 10 cell; Mus musculus, B16-F10, 96 h) | pIC50 (HeLa/MaTu/ADR cell; Homo sapiens, 96 h) | pIC50 (CACO-2 cell) | pIC50 (H460 cell) | further results
1 | CCOC(=O)N=S(C)(=O)Cc1cccc(Nc2ncnc(-c3cc(F)c(F)cc3OC)n2)c1 (racemic) [Compound 9, (rac)-Ethyl [(3-{[4-(4,5-difluoro-2-methoxyphenyl)-1,3,5-triazin-2-yl]amino}benzyl)(methyl)oxido-λ^6-sulfanylidene]carbamate] | 6.40 |  |  |  |  |  | 
2 | COc1cc(F)ccc1-c1ncnc(Nc2cccc(CS(C)(=N)=O)c2)n1 (single isomer, unassigned; (-)) [Compound 3, (-)-4-(4-Fluoro-2-methoxyphenyl)-N-{3-[(S-methylsulfonimidoyl)methyl]phenyl}-1,3,5-triazin-2-amine] | 5.96 | 6.13 | 6.00 |  |  |  | pIC50 (HeLa/MaTu/ADR cell; Homo sapiens, HeLa, 96 h): 6.40
3 | COc1cc(F)ccc1-c1ncnc(Nc2cccc(CS(C)(=N)=O)c2)n1 (racemic) [Compound 2, (rac)-4-(4-Fluoro-2-methoxyphenyl)-N-{3-[(S-methylsulfonimidoyl)methyl]phenyl}-1,3,5-triazin-2-amine] | 5.96 |  |  |  |  |  | 
4 | CS(=N)(=O)Cc1cccc(Nc2ncnc(-c3ccc(F)cc3OCc3ccccc3)n2)c1 (racemic) [Compound 6, (rac)-4-[2-(Benzyloxy)-4-fluorophenyl]-N-{3-[(S-methylsulfonimidoyl)methyl]phenyl}-1,3,5-triazin-2-amine] | > 7.00 | 6.74 | 6.60 | 6.70 | 6.57 | 6.80 | 
5 | CCOC(=O)N=S(C)(=O)Cc1cccc(Nc2ncnc(-c3ccc(F)cc3OC)n2)c1 (racemic) [Compound 1, (rac)-Ethyl [(3-{[4-(4-fluoro-2-methoxyphenyl)-1,3,5-triazin-2-yl]amino}benzyl)(methyl)oxido-λ^6-sulfanylidene]carbamate] | 6.00 | 6.41 | 6.44 | 6.42 | 6.41 | 6.44 | 
6 | COc1cc(F)ccc1-c1ncnc(Nc2cccc(CS(C)(=N)=O)c2)n1 (single isomer, unassigned; (+)) [Compound 4, (+)-4-(4-Fluoro-2-methoxyphenyl)-N-{3-[(S-methylsulfonimidoyl)methyl]phenyl}-1,3,5-triazin-2-amine] |  |  |  |  |  |  | pIC50 (DU145 cell): 6.17; pIC50 (HeLa/MaTu/ADR cell): 6.36; pIC50 (HeLa cell): 6.01; pIC50 (B 16F 10 cell): 6.00; Solubilty in mg/l. (thermodynamic solubility in water) [1]: 479 mg/L
